Values joined by “and” are separate entries in the source; they are usually repeats but may differ in a detail not shown here. Equal entries are not always repeated. Where two headings read alike, the source gives them in different places. Each block holds one molecule with its values, some of them ahead of it.
Experiments:
[1] = target: T1, BRISC (Homo sapiens, UniProt P46736+Q15018+Q9NXR7); experiment: BRISC DUB activity assay (IQF K63-linked diubiquitin); assay type: biochemical
T1 construct: made in house; host or cells: Spodoptera frugiperda (Sf9) insect cells, MultiBac
Experimental: IQF assays were performed in DUB reaction buffer containing 50 mM HEPES–NaOH pH 7.0, 100 mM NaCl, 0.1 mg ml^−1 BSA, 1 mM DTT and 0.03% v/v Brij-35. […] The final concentration of BRISC WT, all BRISC mutants, HsBRISCΔLoop, MmBRISC and DrBRISCΔNΔC was 1 nM. Other enzymes were tested at the following concentrations: 5 nM ARISC (FL), 10 nM CfBRISCΔNΔC, 250 nM AMSH* (ref. [43]), 500 nM USP2 and 1 μM trypsin (Sigma, 9002-07-7). For Michaelis–Menten experiments, 1 nM BRISC with 0–1 μM IQF K63-linked diubiquitin substrate was used. Michaelis–Menten analyses and Lineweaver–Burk plots were calculated using GraphPad Prism (version 9.0).
To assess enzymatic activity, BRISC complexes were diluted to concentrations between 1 nM and 50 nM. […] Then, 20-μl enzyme reactions were carried out in 384-well black flat-bottom low-flange plates (Corning, 35373). DUB activity was measured using IQF K63-linked diubiquitin (LifeSensors, DU6303) at 50 nM. Cleaved diubiquitin was monitored by measuring fluorescence intensity (excitation, 544 nm; emission, 575 nm; dichroic mirror, 560 nm). Fluorescence intensity was measured every minute for 30 min at 30 °C. Fluorescence intensity units were plotted against time to generate a linear reaction progress curve, where the initial velocity (V0) corresponds to the gradient of the curve (typically achieved within 15 min). IC50 values were calculated using the GraphPad Prism (version 9.0) built-in dose–response equation for inhibitor concentration versus response (variable slope).

[2] = test system: IFNAR1 cell surface levels in MCF10A BRCC45 R137A cells; experiment: MCF10A BRCC45 R137A IFNAR1 cell surface levels (FACS); assay type: cell-based, human; details: for IFNAR1 cell surface levels (Fig. 5g): BRCC45 KO + BRCC45 R137A, IFN + compound, No IFN about 100
Experimental: To study the direct effect of BRISC DUB inhibitors, IFNAR1 surface levels were measured using flow cytometry (FACS) analysis. For this purpose, MCF10A WT and MCF10A BRCC45 KO cells expressing […]
BRCC45 WT or BRCC45 R137A were used. […]
minutes prior to the addition of 50 ng/mL of hIFN-Iα for various time points (45 minutes and 90 minutes).
After IFN treatment, cells were dissociated from plate using cell dissociation Buffer (ThermoFisher Scientific, #13150016) and were stained with LIVE/DEAD™ Fixable Violet Dead Cell Stain Kit, for 405 nm excitation (ThermoFisher Scientific, #L34963) for 30 minutes, as per the kit protocol. The cells were then washed using FACS buffer (DPBS, 1% BSA, 2 mM EDTA, 0.09% sodium azide) and transferred to 96-well round bottom plates. Resuspended cells were divided into three repeats for each sample, each was surface stained for 1 hour at 4 °C with: 1. Human IFN-alpha/beta R1 Antibody (R&D systems, #MAB245), 2. Mouse IgG1 Isotype Control (R&D systems, #MAB002), 3. FACS buffer (control cells).
Following incubation, cells were washed once with FACS buffer and were labelled for 30 minutes at 4 °C with either Biotin-SP-conjugated AffiniPure Donkey Anti-Mouse IgG (H+L) (Jackson Immunoresearch Laboratories) for samples 1 and 2 or with FACS buffer for sample 3. Cells were washed twice with FACS buffer and were labelled for 15 minutes at 4 °C with either R-Phycoerythrin-conjugated Streptavidin (Jackson Immunoresearch Laboratories) for samples 1 and 2 or with FACS buffer for sample 3. Cells were washed 3 times with FACS buffer and were analysed by FACS (MACSQuant, Miltenyi Biotec). For each sample from group 1 the Geo mean fluorescence intensity (MFI) of its isotype sample was reduced. IFNAR1 cell surface percentage was calculated by 100*(MFI

[3] = [Inhibitor] 0.013 μM, replicate columns
[4] = [Inhibitor] 0.02 μM, replicate columns
[5] = [Inhibitor] 0.0399999 μM, replicate columns
[6] = [Inhibitor] 0.0599997 μM, replicate columns
[7] = [Inhibitor] 0.0799994 μM, replicate columns
[8] = [Inhibitor] 0.119998 μM, replicate columns
[9] = [Inhibitor] 0.199996 μM, replicate columns
[10] = [Inhibitor] 0.499975 μM, replicate columns
[11] = [Inhibitor] 0.799936 μM, replicate columns
[12] = [Inhibitor] 1.25984 μM, replicate columns
[13] = [Inhibitor] 1.9996 μM, replicate columns
[14] = [Inhibitor] 3.159 μM, replicate columns
[15] = [Inhibitor] 5.19739 μM, replicate columns
[16] = [Inhibitor] 7.99364 μM, replicate columns
[17] = [Inhibitor] 12.7839 μM, replicate columns
[18] = [Inhibitor] 19.96 μM, replicate columns
[19] = [Inhibitor] 31.4999 μM, replicate columns
[20] = [Inhibitor] 50.147 μM, replicate columns
[21] = [Inhibitor] 79.7601 μM, replicate columns
[22] = [Inhibitor] 125.99 μM, replicate columns
[23] = [Inhibitor] 199.922 μM, replicate columns

IC50 ([1]; 32-point dose-response, biphasic fit, read-out: IC50(1), biphasic curve): 1100 nM | IC50 ([1]; 32-point dose-response, biphasic fit, read-out: IC50(2), biphasic curve): 168 nM | Normalised V0 ([1]; Fig. 1e, BRISC, JMS-175-2 1.9996 μM): 0.6565 and 0.4518 | Normalised V0 ([1]; Fig. 1e, BRISC, JMS-175-2 5.19739 μM): 0.283 and 0.275 and 0.3465 | Normalised V0 ([1]; Fig. 1d, log[compound (μM)] 0.0000, listed as H20): 0.6438 and 0.8274 and 0.7444 | Normalised V0 ([1]; Fig. 1d, log[compound (μM)] 0.3979, listed as H20): 0.5783 and 0.5268 and 0.4841 | Normalised V0 ([1]; Fig. 1d, log[compound (μM)] 0.6990, listed as H20): 0.3795 and 0.3824 and 0.3190 | Normalised V0 ([1]; Fig. 1d, log[compound (μM)] 1.0000, listed as H20): 0.2528 and 0.2942 and 0.2669 | Normalised V0 ([1]; Fig. 1d, log[compound (μM)] 1.4771, listed as H20): 0.1351 and 0.1861 and 0.1726 | Normalised V0 ([1]; Fig. 1d, log[compound (μM)] 1.6990, listed as H20): 0.1117 and 0.1567 and 0.1200 | Normalised V0 ([1]; Fig. 1d, log[compound (μM)] -0.3010, listed as H20): 0.9255 and 0.9030 | Normalised V0 ([1]; Fig. 1d, log[compound (μM)] -1.0000, listed as H20): 0.9975 and 1.0280 and 1.0210 | Normalised V0 ([1]; Fig. 1d, log[compound (μM)] -2.0000, listed as H20): 1.0150 and 0.9155 and 1.0690 | IC50 ([1]; IQF K63-linked diubiquitin substrate, read-out: IC50, inhibition of BRISC DUB activity): 3800 nM | Normalised V0 [1, 4]: 0.8771 and 0.8197 and 1.004 | Normalised V0 [1, 5]: 1.299 and 0.7892 and 1.03 | Normalised V0 [1, 6]: 0.839 and 0.6819 and 0.9433 | Normalised V0 [1, 7]: 0.9097 and 0.9012 and 0.9628 | Normalised V0 [1, 8]: 1.013 and 0.9179 and 1.054 | Normalised V0 [1, 9]: 1.253 and 0.7708 and 1.101 | Normalised V0 [1, 10]: 0.5936 and 0.7022 and 0.9756 | Normalised V0 [1, 11]: 0.9296 and 0.6017 and 0.8518 | Normalised V0 [1, 12]: 1.139 and 0.471 and 0.8066 | Normalised V0 [1, 13]: 0.6565 and 0.4518 and 0.6268 | Normalised V0 [1, 14]: 0.6624 and 0.3061 and 0.5597 | Normalised V0 [1, 15]: 0.283 and 0.275 and 0.3465 | Normalised V0 [1, 16]: 0.6473 and 0.2184 and 0.4215 | Normalised V0 [1, 17]: 0.4135 and 0.1798 and 0.2477 | Normalised V0 [1, 18]: 0.3284 and 0.5166 and 0.3249 | Normalised V0 [1, 19]: 0.6187 and 0.1303 and 0.1533 | Normalised V0 [1, 20]: 0.2621 and 0.1377 and 0.1733 | Normalised V0 [1, 21]: 0.2164 and 0.1356 and 0.1726 | Normalised V0 [1, 22]: 0.1111 and 0.1816 and 0.02719 | Normalised V0 [1, 23]: -0.03072 and 0.01018 and -0.03521 | Normalised velocity (V0) ([1]; inhibitor 0.000794328 μM): 1 | Normalised velocity (V0) ([1]; inhibitor 0.00125892 μM): 0.9579 and 1.034 | Normalised velocity (V0) ([1]; inhibitor 0.00199526 μM): 1.01 and 0.9969 | Normalised velocity (V0) ([1]; inhibitor 0.00316228 μM): 0.9962 and 1.154 | Normalised velocity (V0) ([1]; inhibitor 0.00501187 μM): 0.9932 and 1.028 | Normalised velocity (V0) ([1]; inhibitor 0.00794328 μM): 1.087 and 1.121 | normalised V0, Mean ([1]; inhibitor 0.01 μM): 1 | Normalised velocity (V0) ([1]; inhibitor 0.0125893 μM): 1.059 and 1.016 | Normalised velocity (V0) ([1]; inhibitor 0.0199526 μM): 1.08 and 1.097 | Normalised velocity (V0) ([1]; inhibitor 0.0316228 μM): 1.03 and 1.101 | Normalised velocity (V0) ([1]; inhibitor 0.0501187 μM): 1.036 and 1.109 | normalised V0, Mean ([1]; inhibitor 0.0781 μM): 0.9992 | Normalised velocity (V0) ([1]; inhibitor 0.0794328 μM): 1.026 and 1.083 | Normalised velocity (V0) ([1]; inhibitor 0.125893 μM): 0.8526 and 0.9544 | Normalised velocity (V0) ([1]; inhibitor 0.199526 μM): 0.6481 and 0.8082 | Normalised velocity (V0) ([1]; inhibitor 0.316228 μM): 0.694 and 0.5793 | Normalised velocity (V0) ([1]; inhibitor 0.398107 μM): 0.5098 and 0.5762 | Normalised velocity (V0) ([1]; inhibitor 0.630957 μM): 0.4827 and 0.4555 | normalised V0, Mean ([1]; inhibitor 0.7812 μM): 0.7414 | Normalised velocity (V0) ([1]; inhibitor 1 μM): 0.3835 and 0.2691 | normalised V0, Mean ([1]; inhibitor 1.562 μM): 0.5385 | Normalised velocity (V0) ([1]; inhibitor 1.58489 μM): 0.2248 and 0.2189 | Normalised velocity (V0) ([1]; inhibitor 2.51189 μM): 0.2301 and 0.1988 | normalised V0, Mean ([1]; inhibitor 3.12 μM): 0.384 | Normalised velocity (V0) ([1]; inhibitor 3.98107 μM): 0.1293 and 0.1933 | normalised V0, Mean ([1]; inhibitor 6.25 μM): 0.2986 | Normalised velocity (V0) ([1]; inhibitor 6.30957 μM): 0.09323 and 0.07115 | normalised V0, Mean ([1]; inhibitor 12.3 μM): 0.2014 | Normalised velocity (V0) ([1]; inhibitor 15.8489 μM): 0.009774 and 0.01547 | normalised V0, Mean ([1]; inhibitor 24.54 μM): 0.1684 | Normalised velocity (V0) ([1]; inhibitor 25.1189 μM): 0 | Normalised velocity (V0) ([1]; inhibitor 39.8107 μM): 0 | normalised V0, Mean ([1]; inhibitor 48.9 μM): 0.1492 | Normalised velocity (V0) ([1]; inhibitor 63.0957 μM): 0 | Normalised velocity (V0) ([1]; inhibitor 100 μM): 0 | normalised V0, Mean ([1]; inhibitor 100 μM): 0.04999 | normalised V0, Mean ([1]; inhibitor 199.5 μM): 0.004784
SMILES: O=C(NC1CCNCC1)c1nn(C(=O)c2c(Cl)cccc2Cl)cc1NC(=O)c1c(Cl)cccc1Cl [JMS-175-2]
Normalised V0 [1, 3]: 0.9583 and 0.7384 and 1.046 and 0.967 and 0.8595 and 0.8402 | IFNAR1 cell surface levels (Fig. 5g) [2]: 50.1158 and 49.56 and 49.1431 | IFNAR1 cell surface levels ([2]; BRCC45 R137A cells, IFN 50 ng/ml, 5 μM, 90 min): not reduced

inhibition of BRISC DUB activity (in words) ([1]; IQF diubiquitin assay): no inhibitory effect | Normalised V0 [1, 3]: 0.9159 and 1.143 and 0.9058 and 0.9388 | Normalised V0 [1, 4]: 0.9923 and 1.0109 | Normalised V0 [1, 5]: 0.8997 and 0.9429 | Normalised V0 [1, 6]: 0.9873 and 1.113 | Normalised V0 [1, 7]: 0.9492 and 1.054 | Normalised V0 [1, 8]: 0.9627 and 1.064 | Normalised V0 [1, 9]: 0.9243 and 0.9333 | Normalised V0 [1, 10]: 0.9206 and 1.055 | Normalised V0 [1, 11]: 0.5226 and 1.107 | Normalised V0 [1, 12]: 0.877 and 1.051 | Normalised V0 [1, 13]: 0.8804 and 1.0497 | Normalised V0 [1, 14]: 0.8796 and 0.9314 | Normalised V0 [1, 15]: 1.075 and 0.9343 | Normalised V0 [1, 16]: 0.9828 and 1.083 | Normalised V0 [1, 17]: 1.017 and 1.039 | Normalised V0 [1, 18]: 1.018 and 0.9724 | Normalised V0 [1, 19]: 0.9031 and 1.019 | Normalised V0 [1, 20]: 0.9135 and 0.9224 | Normalised V0 [1, 21]: 0.8955 and 0.9782 | Normalised V0 [1, 22]: 0.8989 and 0.9064 | Normalised V0 [1, 23]: 0.8256 and 0.9679
SMILES: Cn1cc(NC(=O)c2c(Cl)cccc2Cl)c(C(=O)NC2CCN(C(=O)c3c(Cl)cccc3Cl)CC2)n1 [AP-5-145]
IFNAR1 cell surface levels (Fig. 5g) [2]: 55.396 and 54.5623 and 54.7013

Source: article PMC7617869, “Molecular glues that inhibit deubiquitylase activity and inflammatory signaling” (Nature Structural & Molecular Biology, 2025)
